Experimental data as given in the supplement of paper PMC10307832.

Key:
Test in all cases: relative viability (nuclei count vs DMSO), 5 days (fraction); higher = more cells survive
[1] = compound: Cc1ccc(-n2nc(C(C)(C)C)cc2NC(=O)Nc2ccc(OCCN3CCOCC3)c3ccccc23)cc1 [Doramapimod] + COc1cccc2cc(-c3nc([C@H]4CC[C@H](C(=O)O)CC4)n4ncnc(N)c34)[nH]c12 [OSI-027] (partner 0.5 µM)
How it was run: (§1)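 Lung cancer cell lines in 1536-well plates were dosed by pin tool the day after seeding, either with one drug alone or with a fixed anchor-drug dose plus five library-drug doses (not always all listed) in √10 steps. After 5 days, cells were fixed and their nuclei stained in one step (final 0.05% Triton X-100, 1% formaldehyde, 1 ug/ml Hoechst), then counted on 4× images. Relative viability is the nuclei count in treated wells divided by that in vehicle wells. Values are medians of duplicate plates.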

[2] = compound: C1=CC=C2C(=C1)C=CC(=C2SSC3=C(C=CC4=CC=CC=C43)O)O [IPA-3] + C[C@]1(O)C[C@@H](c2nc(-c3ccc4ccc(-c5ccccc5)nc4c3)c3c(N)nccn32)C1 [Linsitinib] (partner 1 µM)
How it was run: as §1

[3] = compound: Cn1c(Nc2ccc(C(F)(F)F)cc2)nc2cc(Oc3ccnc(-c4ncc(C(F)(F)F)[nH]4)c3)ccc21 [RAF265] + COc1cc2c(Oc3ccc(NC(=O)C4(C(=O)Nc5ccc(F)cc5)CC4)cc3F)ccnc2cc1OCCCN1CCOCC1 [Foretinib] (partner 0.25 µM)
How it was run: as §1

[4] = compound: C1=CC=C2C(=C1)C=CC(=C2SSC3=C(C=CC4=CC=CC=C43)O)O [IPA-3] + Nc1ncn([C@H]2C[C@H](O)[C@@H](CO)O2)c(=O)n1 [Decitabine] (partner 2 µM)
How it was run: as §1

With UMC-11 the relative viability ([1]; first compound 0.02 µM) was 0.49, the relative viability ([1]; first compound 0.06325 µM) was 0.385 and the relative viability ([1]; first compound 0.2 µM) was 0.472. The relative viability ([1]; first compound 0.6325 µM) was 0.438, the relative viability ([1]; first compound 2 µM) was 0.444 and the relative viability ([2]; first compound 0.2 µM) was 1.28. The relative viability ([2]; first compound 0.6325 µM) was 0.923, the relative viability ([2]; first compound 2 µM) was 1.07 and the relative viability ([2]; first compound 6.325 µM) was 1.04. The relative viability ([2]; first compound 20 µM) was 1.24, the relative viability ([3]; first compound 0.01 µM) was 1.02 and the relative viability ([3]; first compound 0.03162 µM) was 1.05. The relative viability ([3]; first compound 0.1 µM) was 0.972, the relative viability ([3]; first compound 0.3162 µM) was 0.992 and the relative viability ([3]; first compound 1 µM) was 0.926. The relative viability ([4]; first compound 0.2 µM) was 0.682, the relative viability ([4]; first compound 0.6325 µM) was 0.759 and the relative viability ([4]; first compound 2 µM) was 0.568. The relative viability ([4]; first compound 6.325 µM) was 0.362 and the relative viability ([4]; first compound 20 µM) was 0.594.
